Source: paper PMC11066877, “Development and Characterization of Novel FAP-Targeted Theranostic Pairs: A Bench-to-Bedside Study” (Research, 2023)

Key:
[1] = microPET/CT imaging, ROI analysis, HT-1080 tumor models; format: in vivo, mice; conditions: nude (thymus-free), mouse, intravenous, 3 MBq, 4 h p.i.
Description: (§1) A human pancreatic cancer cell line BxPC-3 and a murine pancreatic cancer cell Panc-02 were obtained from the American Type Culture Collection. The pancreatic cancer cell line T3M-4 was purchased by MeisenCTCC (Zhejiang, China). BxPC-3 and T3M-4 cell lines were grown in RPMI 1640 medium (Shanghai BasalMedia Technologies Co., LTD.) containing 10% FBS (GE Healthcare, Chicago, IL, USA) and 1% penicillin–streptomycin solution (Invitrogen). To culture the Panc-02 cell line, a medium called Dulbecco’s modified Eagle medium from Shanghai BasalMedia Technologies Co., LTD. was used, which consisted of 10% FBS. The cell line HT-1080 was grown in MEM medium (Shanghai BasalMedia Technologies Co., LTD.) supplemented with 10% FBS, 1% penicillin-streptomycin solution, and 1% nonessential amino acids (NEAA-11140050; Gibco). A human fibrosarcoma cell line was stably transfected with FAP (HT1080-FAP) and cultured, as we previously described. All cell lines were cultured in a humid incubator with 5% CO2 at a temperature of 37 °C. Approval was granted by the Institutional Animal Care and Use Committee (Renji Hospital, School of Medicine, Shanghai Jiao Tong University) for all experimental protocols and procedures related to animal care. Panc-02 cells were implanted by subcutaneous injection of 5 × 10^6 tumor cells suspended in 100 μl PBS and matrigel matrix (Corning) with equal volume into the upper limb flank of C57BL/6 mice (Shanghai Sheng Chang Biotechnology Co., Ltd.). Four- to 6-week-old thymus-free nude mice (GemPharmatech) were subcutaneously inoculated with BxPC-3, T3M-4, HT-1080, and HT1080-FAP cells (5 × 10^6 in 100 μl of PBS mixing with 100 μl matrigel matrix) in the right shoulder. […]
(§2) MicroPET imaging was performed on isoflurane-anesthetized mice injected intravenously via the lateral tail vein with around 3 MBq (2.5 nmol) of the radioligand at certain times. […] The information was analyzed using OsiriX Lite software (Pixmeo SARL) and Inveon Research Workplace (Siemens Preclinical Solutions). […]

[2] = microPET/CT imaging, ROI analysis, BxPC-3 tumor models; format: in vivo, mice; conditions: nude (thymus-free), mouse, intravenous, 3 MBq, 4 h p.i.
Description: as §1, §2

[3] = microPET/CT imaging, ROI analysis, Panc-02 tumor models; format: in vivo, mice; conditions: C57BL/6, mouse, intravenous, 3 MBq, 4 h p.i.
Description: as §1, §2

[4] = Stability of 177Lu-labeled radiopharmaceuticals in FBS and PBS; format: in vitro ADME; conditions: 50% FBS and 50% PBS, checked at 2 h and 24 h
Description: To perform ^68Ga-labeling, approximately 20 nmol of FD1, FD2, or FD3 was dissolved in 20 μl of dimethyl sulfoxide and 230 μl of sterile deionized water. This mixture was added to 400 μl of ^68GaCl3 solution (containing 37 MBq) in 0.1 M HCl, with pH adjusted to 4.0 using 0.1 M NH4OAC. The mixture was incubated at 100 °C for 10 min without any additional purification steps. For ^177Lu-labeling, high-purity radionuclide ^177LuCl3 in 0.04 M HCl (3.9 GBq in 97 μl) was purchased from ITM (Munich, Germany). ^177LuCl3 solution (555 MBq in 0.04 M HCl) was added to 500 μl of 1M NH4OAC (pH = 5), followed by the addition of 375 nmol of FD1, FD2, or FD3. The solution was shaken at a temperature of 100 °C for a duration of 30 min. Instant thin-layer chromatography (iTLC; Eckert & Ziegler Radiopharma Inc.) was used to evaluate the RCP of the final products. For iTLC, the mobile phase consisted of 1 M NH4OAC and methyl alcohol in a ratio of 1:1. The final solution must be adjusted to pH 7.0 before being injected into the experimental mice via the tail vein. The stability of ^177Lu-labeled radiopharmaceuticals was evaluated in a mixture of 50% FBS and 50% PBS at 2 h and 24 h after preparation. In the process of preparing each [^68Ga]Ga-DOTA-FD1 for clinical imaging, the end product underwent sterilization by passing it through a 0.22-μm Millipore filter.

[5] = tested on: HT1080-FAP tumor; assay: FAP-targeted radioligand therapy in HT1080-FAP tumor models; format: in vivo, mice
Description: HT1080-FAP tumor models with higher levels of FAP expression were utilized in this study. Tumor-bearing mice were subjected to therapy experiments when the tumor volume reached 50 to 180 mm^3. Tumor models with different tumor volumes were injected with different therapeutic doses. Mice bearing HT1080-FAP tumors of slightly larger tumor volumes were randomly assigned into 4 groups (n = 5 per group): control group and treatment groups with 800 μCi of [^177Lu]Lu-DOTA-FD1, 400 μCi of [^177Lu]Lu-DOTA-FD3, and 600 μCi [^177Lu]Lu-DOTA-FD3. Mice bearing HT1080-FAP tumors of slightly smaller tumor volumes were also divided into 4 groups (n = 6 per group): control group and treatment groups with 200 μCi of [^177Lu]Lu-DOTA-FD1, 200 μCi of [^177Lu]Lu-DOTA-FD2, and 200 μCi of [^177Lu]Lu-DOTA-FD3. Tumor volume and mice body weight were examined daily after a single-dose injection. Weight monitoring is expressed as a percentage of initial weight on the measurement day. Tumor volume was measured as half of the length × width squared times. Mice were euthanized when the tumor volume exceeded 1,500 mm^3, the tumor ruptured, or when it lost more than 20% of its body weight. T3M-4 tumor models with abundant stroma were established to validate the therapeutic efficacy of [^177Lu]Lu-DOTA-FD3. When the tumor volume grew to 100 to 150 mm^3, the mice were randomly divided into 2 groups (n = 7 per group): free ^177Lu treatment group and 500 μCi [^177Lu]Lu-DOTA-FD3 treatment group. Tumor volume and mice body weight were examined every 2 days.

[6] = Ex vivo biodistribution of 177Lu-labeled radioligands in tumor-free nude mice; conditions: mouse, intravenous, 1.11 MBq, total radioactivity
Source text: After imaging collection and image reconstruction, samples from euthanized experimental mice, including blood and multiple significant organs, were harvested and weighed. The radioactivity in each collected tissue was counted using an automated gamma counter (Wizard 2480, PerkinElmer) and the accumulation of radioactivity in different tissues and organs was quantified and expressed as %ID/g (mean ± SD). [^177Lu]Lu-DOTA-FD1 (~1.11 MBq, n = 3), [^177Lu]Lu-DOTA-FD2 (~1.11 MBq, n = 3), and [^177Lu]Lu-DOTA-FD3 (~1.11 MBq, n = 3) were injected into the tail vein of free nude mice at 6 h, 24 h, and 24 h for ex vivo biodistribution to verify the circulation time of the 3 probes in vivo. Biodistribution data from tumor-bearing mice injected with [^177Lu]Lu-DOTA-FD3 at 45 h (~1.11 MBq, n = 4) and 90 h (~1.11 MBq, n = 3) validated the prolonged enrichment of the probe at the tumor site. At the end of each probe imaging and radioactivity counting study, tumor tissues were fixed in paraformaldehyde tissue fixative. Briefly, sections of 10 μm were cut and stained for H&E following the standard protocols. IHC staining with a FAP antibody (ab227703, Abcam) was performed only on tumor tissues following accepted techniques.

CCCCCC(=O)N[C@H]1CSCc2cc(CSCCNC(=O)[C@H](CCCCNC(=O)CCCc3ccc(I)cc3)NC(=O)[C@@H](NC(=O)[C@H](CCSC)NC(=O)CN3CCN(CC(=O)O)CCN(CC(=O)O)CCN(CC(=O)O)CC3)C(C)C)cc(c2)CSC[C@@H](C(=O)O)NC(=O)[C@H](Cc2ccccc2)NC(=O)[C@H](CCC(N)=O)NC(=O)[C@H]([C@@H](C)O)NC(=O)[C@@H]2CCCN2C(=O)[C@@H]2CCCN2C1=O [[^68Ga]Ga-DOTA-FD3, metal not drawn]
tissue uptake at 4 h [1]: 9.97 ± 0.42 %ID/g | tissue uptake at 4 h [2]: 7.07 ± 0.45 %ID/g | tissue uptake at 4 h [3]: 7.03 ± 1 %ID/g

CCCCCC(=O)N[C@H]1CSCc2cc(CSCCNC(=O)[C@H](CCCCN)NC(=O)[C@@H](NC(=O)[C@H](CCSC)NC(=O)CN3CCN(CC(=O)O)CCN(CC(=O)O)CCN(CC(=O)O)CC3)C(C)C)cc(c2)CSC[C@@H](C(=O)O)NC(=O)[C@H](Cc2ccccc2)NC(=O)[C@H](CCC(N)=O)NC(=O)[C@H]([C@@H](C)O)NC(=O)[C@@H]2CCCN2C(=O)[C@@H]2CCCN2C1=O [[^177Lu]Lu-DOTA-FD1, metal not drawn]
stable in FBS and PBS, no significant demetallation [4]: at least 24 h | tumor volume versus control group ([5]; average tumor volume 180 mm^3 at onset, single dose 800 μCi): no difference in tumor volume | tissue uptake at 6 h ([6]; kidney, 6 h p.i., read-out: radioactivity uptake in kidneys (biodistribution)): 30.4 ± 3.1 %ID/g

CCCCCC(=O)N[C@H]1CSCc2cc(CSCCNC(=O)[C@H](CCCCNC(=O)CCCc3ccc(I)cc3)NC(=O)CN3CCN(CC(=O)O)CCN(CC(=O)O)CCN(CC(=O)O)CC3)cc(c2)CSC[C@@H](C(=O)O)NC(=O)[C@H](Cc2ccccc2)NC(=O)[C@H](CCC(N)=O)NC(=O)[C@H]([C@@H](C)O)NC(=O)[C@@H]2CCCN2C(=O)[C@@H]2CCCN2C1=O [[^177Lu]Lu-DOTA-FD2, metal not drawn]
stable in FBS and PBS, no significant demetallation [4]: at least 24 h | tumor growth at the end of the study ([5]; average tumor volume 50 mm^3 at onset, single dose 200 μCi): substantially inhibited the tumor growth | mice that acquired complete response (CR) ([5]; average tumor volume 50 mm^3 at onset, single dose 200 μCi, 6 mice per group): 1 of the 6 | tissue uptake at 24 h ([6]; blood, 24 h p.i., read-out: accumulation in the blood pool (biodistribution)): 31.8 ± 2.24 %ID/g
